{
  "source": "the supplement of paper PMC10307832",
  "assay_in_all_cases": "relative viability (nuclei count vs DMSO), 5 days (fraction); higher = more cells survive",
  "key": {"[1]": {"compound": "CC1(C)CNc2cc(NC(=O)c3cccnc3NCc3ccncc3)ccc21 [Motesanib] + CS(=O)(=O)CCNCc1ccc(-c2ccc3ncnc(Nc4ccc(OCc5cccc(F)c5)c(Cl)c4)c3c2)o1 [Lapatinib] (partner 2 µM)", "method_in_brief": "(§1)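 After 5 days of treatment, lung cancer cells in 1536-well plates were fixed and stained in a single step (final 0.05% Triton X-100, 1% formaldehyde, 1 ug/ml Hoechst) and their nuclei counted on 4× images. Treatment had been applied by pin tool the day after seeding as one drug alone or as a fixed anchor-drug dose with five library-drug doses (not always all listed) in √10 steps. Relative viability is the nuclei count of treated wells divided by that of vehicle wells, and values are medians of duplicate plates.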"}, "[2]": {"compound": "CC1(C)CNc2cc(NC(=O)c3cccnc3NCc3ccncc3)ccc21 [Motesanib] + C[C@]1(O)C[C@@H](c2nc(-c3ccc4ccc(-c5ccccc5)nc4c3)c3c(N)nccn32)C1 [Linsitinib] (partner 1 µM)", "method_in_brief": "as §1"}, "[3]": {"compound": "C[C@@]1(C(=O)Nc2ccc(F)nc2)CCCN1c1nc(Nc2cc(C3CC3)n[nH]2)c2cccn2n1 + CC(=O)Nc1cccc(-n2c(=O)n(C3CC3)c(=O)c3c(Nc4ccc(I)cc4F)n(C)c(=O)c(C)c32)c1 [Trametinib] (partner 0.02 µM)", "method_in_brief": "as §1"}, "[4]": {"compound": "C[C@@]1(C(=O)Nc2ccc(F)nc2)CCCN1c1nc(Nc2cc(C3CC3)n[nH]2)c2cccn2n1 + O=C(CCCCCCC(=O)Nc1ccccc1)NO [Vorinostat] (partner 1 µM)", "method_in_brief": "as §1"}},
  "data": [
    {"cell line": "UMC-11", "values": [
      {"measurement": "relative viability", "setting": "[1]; first compound 0.01 µM", "value": 0.901},
      {"measurement": "relative viability", "setting": "[1]; first compound 0.03162 µM", "value": 1.07},
      {"measurement": "relative viability", "setting": "[1]; first compound 0.1 µM", "value": 0.724},
      {"measurement": "relative viability", "setting": "[1]; first compound 0.3162 µM", "value": 1},
      {"measurement": "relative viability", "setting": "[1]; first compound 1 µM", "value": 1.08},
      {"measurement": "relative viability", "setting": "[2]; first compound 0.01 µM", "value": 0.984},
      {"measurement": "relative viability", "setting": "[2]; first compound 0.03162 µM", "value": 0.985},
      {"measurement": "relative viability", "setting": "[2]; first compound 0.1 µM", "value": 1.04},
      {"measurement": "relative viability", "setting": "[2]; first compound 0.3162 µM", "value": 1},
      {"measurement": "relative viability", "setting": "[2]; first compound 1 µM", "value": 1.13},
      {"measurement": "relative viability", "setting": "[3]; first compound 0.04 µM", "value": 0.703},
      {"measurement": "relative viability", "setting": "[3]; first compound 0.1265 µM", "value": 0.671},
      {"measurement": "relative viability", "setting": "[3]; first compound 0.4 µM", "value": 0.651},
      {"measurement": "relative viability", "setting": "[3]; first compound 1.265 µM", "value": 0.648},
      {"measurement": "relative viability", "setting": "[4]; first compound 0.04 µM", "value": 0.398},
      {"measurement": "relative viability", "setting": "[4]; first compound 0.1265 µM", "value": 0.432},
      {"measurement": "relative viability", "setting": "[4]; first compound 0.4 µM", "value": 0.359},
      {"measurement": "relative viability", "setting": "[4]; first compound 1.265 µM", "value": 0.258}
    ]}
  ]
}
